# Reference: patent US9896440B2, “Aryl substituted heterocyclyl sulfones” (GRÜNENTHAL GMBH, priority 2014, dated 2018)
# Target: T1, Human CaV2.2 channels (Homo sapiens, UniProt Q00975)
# T1 construct: expressed in transfected cells; Kir2.3 also stably co-expressed
# Assay: Fluorescence assay for CaV2.2 channels using potassium depolarization to induce channel opening (FLIPR, Fluo 4)
# Assay type: cell-based
# Conditions: 3 μM test compound, 30 mM KCl assay buffer (inactivated channel state), HEK293 cells
# From the text: In the process, the Ca^2+ influx is quantified in the FLIPR assay with the aid of a Ca^2+-sensitive dye (type Fluo-4, Molecular Probes Europe BV, Leiden, the Netherlands) in a fluorescent imaging plate reader (FLIPR 3, Molecular Devices, Sunnyvale, USA), as described hereinafter.
# Human CaV2.2 channels were stably expressed in HEK293 cells together with alpha2-delta and beta subunits of voltage gated calcium channels. In addition, an inwardly rectifying potassium channel (Kir2.3) was stably expressed in these cells to augment control of the cell membrane potential by the concentration of extracellular potassium ions. Raise of the extracellular potassium concentration leads to depolarization of the membrane potential and thus regulates the voltage dependent state of CaV2.2 channels. For preparation, cells were seeded in black poly-D-lysine coated 96-well plates (Becton Dickinson, Biocoat 4640) in 100 μL medium [500 mL DMEM/F-12 plus Glutamax (Invitrogen 31331-093) plus 5.5 mL MEM NEAA 100× (Invitrogen 11140-035) plus 50 mL FBS decomplemented (Invitrogen 10270-106) plus 200 μg/mL Geneticin (Invitrogen 10131-027) plus 50 μg/mL Hygromycin B (Invitrogen 10687-010) plus 2 μg/mL Blasticidin (anti-bl5b Invivo-Gen) plus 0.2 μg/mL Puromycin (A 11138-03)] at a cell density of 30.000 cells per well. Plates were incubated at 37° C. (5% CO2) for 20 to 23 h. On the day of experiment medium was discarded and cells were loaded with Fluo 4 by addition of 100 μL of basic assay buffer (10 mM HEPES, 1 mM KCl, 149 mM NaCl, 0.8 mM CaCl2, 1.7 mM MgCl2, 10 mM Glucose, 0.1% BSA. pH 7.4) containing 2 μM Fluo 4 (Molecular Probes; F-14201), 0.01% pluronic acid (Molecular Probes; P-6866) and 2.5 mM probenecid (Molecular Probes; P36400). Cells were incubated in the dark at 25° C. for 60 min. Then dye containing buffer was discarded and 100 μL basic (1 mM KCl) or alternative (30 mM KCl) assay buffer was added. The alternative assay buffer contained altered concentrations of KCl (30 mM) and NaCl (120 mM) and was used in order to promote the inactivated channel state. After that 25 μL of basic or alternative assay buffer with or without test compound were added and cells were incubated again in the dark at 25° C. for 15 min. Fluorescence intensity was measured on a FLIPR 3 instrument (Molecular Devices Corp., Sunnyvale, Calif.) with excitation at 480 nm and emission at 535 nm. After continuously reading fluorescence for 30 sec, 50 μL of basic assay buffer containing 210 mM KCl (NaCl omitted) were added for depolarization. Peak fluorescent signal intensity was determined and the amplitude of the peak signal, normalized to base line, was used to measure channel inhibition by test compounds.
# T1 sequence (Q00975 whole entry): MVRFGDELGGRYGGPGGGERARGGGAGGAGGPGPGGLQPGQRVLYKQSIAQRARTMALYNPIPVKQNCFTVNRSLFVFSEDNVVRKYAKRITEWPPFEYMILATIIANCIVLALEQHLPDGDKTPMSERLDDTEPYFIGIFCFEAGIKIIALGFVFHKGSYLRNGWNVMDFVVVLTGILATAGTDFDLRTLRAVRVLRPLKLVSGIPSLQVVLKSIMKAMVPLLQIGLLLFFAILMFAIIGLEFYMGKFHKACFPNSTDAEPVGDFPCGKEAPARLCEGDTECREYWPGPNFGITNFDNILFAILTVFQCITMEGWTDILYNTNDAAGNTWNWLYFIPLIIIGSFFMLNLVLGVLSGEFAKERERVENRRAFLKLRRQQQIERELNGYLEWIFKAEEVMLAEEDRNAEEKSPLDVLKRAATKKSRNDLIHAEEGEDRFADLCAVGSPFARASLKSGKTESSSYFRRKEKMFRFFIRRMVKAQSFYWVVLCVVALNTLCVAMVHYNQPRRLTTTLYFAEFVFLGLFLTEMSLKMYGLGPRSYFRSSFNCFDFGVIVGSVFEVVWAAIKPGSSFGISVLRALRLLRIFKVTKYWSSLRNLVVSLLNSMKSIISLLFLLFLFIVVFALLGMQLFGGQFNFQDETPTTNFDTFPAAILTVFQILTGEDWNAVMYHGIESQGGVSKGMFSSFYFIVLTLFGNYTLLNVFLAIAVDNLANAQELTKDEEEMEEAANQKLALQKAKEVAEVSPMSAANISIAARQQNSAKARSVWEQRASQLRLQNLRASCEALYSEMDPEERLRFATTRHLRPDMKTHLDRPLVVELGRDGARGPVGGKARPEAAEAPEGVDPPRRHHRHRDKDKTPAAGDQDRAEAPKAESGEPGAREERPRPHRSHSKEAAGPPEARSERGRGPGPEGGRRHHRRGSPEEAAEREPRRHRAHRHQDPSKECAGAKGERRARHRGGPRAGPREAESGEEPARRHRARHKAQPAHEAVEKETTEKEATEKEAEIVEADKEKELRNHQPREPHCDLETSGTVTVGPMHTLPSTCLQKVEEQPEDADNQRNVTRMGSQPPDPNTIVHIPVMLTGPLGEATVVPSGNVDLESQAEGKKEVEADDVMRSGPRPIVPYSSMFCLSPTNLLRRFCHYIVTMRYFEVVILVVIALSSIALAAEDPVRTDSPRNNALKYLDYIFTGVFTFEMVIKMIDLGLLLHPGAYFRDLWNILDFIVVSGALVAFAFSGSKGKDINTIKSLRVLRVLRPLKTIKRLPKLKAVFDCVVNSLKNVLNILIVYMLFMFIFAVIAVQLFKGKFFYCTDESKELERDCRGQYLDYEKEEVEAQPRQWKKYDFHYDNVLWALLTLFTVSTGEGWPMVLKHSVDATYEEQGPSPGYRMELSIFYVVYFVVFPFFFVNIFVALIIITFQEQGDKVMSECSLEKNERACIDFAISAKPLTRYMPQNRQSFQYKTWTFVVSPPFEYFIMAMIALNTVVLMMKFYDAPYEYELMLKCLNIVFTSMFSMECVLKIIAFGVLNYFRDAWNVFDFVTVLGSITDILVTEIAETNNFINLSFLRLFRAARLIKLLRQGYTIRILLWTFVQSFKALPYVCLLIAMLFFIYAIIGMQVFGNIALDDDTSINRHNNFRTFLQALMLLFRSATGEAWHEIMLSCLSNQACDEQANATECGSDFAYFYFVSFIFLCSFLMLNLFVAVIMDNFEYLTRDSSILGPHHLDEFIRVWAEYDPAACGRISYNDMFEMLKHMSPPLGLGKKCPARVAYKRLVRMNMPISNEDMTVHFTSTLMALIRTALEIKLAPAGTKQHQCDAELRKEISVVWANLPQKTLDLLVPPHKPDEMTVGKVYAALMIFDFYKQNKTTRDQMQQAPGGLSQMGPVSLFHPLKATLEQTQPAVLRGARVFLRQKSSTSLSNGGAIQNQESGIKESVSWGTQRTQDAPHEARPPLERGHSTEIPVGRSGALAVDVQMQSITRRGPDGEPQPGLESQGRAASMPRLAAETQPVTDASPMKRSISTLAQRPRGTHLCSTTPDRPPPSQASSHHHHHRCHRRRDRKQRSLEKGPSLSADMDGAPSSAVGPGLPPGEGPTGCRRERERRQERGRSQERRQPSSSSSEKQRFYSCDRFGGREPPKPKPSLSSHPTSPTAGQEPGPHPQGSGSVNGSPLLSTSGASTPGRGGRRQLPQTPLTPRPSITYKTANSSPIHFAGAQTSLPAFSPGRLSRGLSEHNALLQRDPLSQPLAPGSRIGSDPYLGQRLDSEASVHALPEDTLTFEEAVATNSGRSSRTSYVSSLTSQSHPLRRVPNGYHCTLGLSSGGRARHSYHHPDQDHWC
row,SMILES,Activity Category: %-Inhib (CaV2.2) @3 μM @30 mM KCl
1,"CC1(S(=O)(=O)c2cccc(C(F)(F)F)c2)CCOC(c2ccc(S(C)(=O)=O)c(S(C)(=O)=O)c2)C1 (single isomer, unassigned) [SC-133, 2-[3,4-Bis(methylsulfonyl)-phenyl]-4-methyl-4-[[3-(trifluoromethyl)phenyl]sulfonyl]-tetrahydro-pyran]",A (%-Inhibition >95%)
2,"CC1(S(=O)(=O)c2cccc(C(F)(F)F)c2)CCOC(c2ccc(-n3cncn3)cc2)C1 (single isomer, unassigned) [SC-135, 1-[4-[4-Methyl-4-[[3-(trifluoromethyl)phenyl]sulfonyl]-tetrahydro-pyran-2-yl]-phenyl]-1H-[1,2,4]triazole]",A (%-Inhibition >95%)
3,"CC1(S(=O)(=O)c2cccc(C(F)(F)F)c2)CCOC(c2ccc(F)c(C(N)=O)c2)C1 (single isomer, unassigned) [SC-138, 2-Fluoro-5-[4-methyl-4-[[3-(trifluoromethyl)phenyl]sulfonyl]-tetrahydro-pyran-2-yl]-benzamide]",C (%-Inhibition >40% up to ≦75%)
4,"CC1(S(=O)(=O)c2cccc(C(F)(F)F)c2)CCOC(c2ccc(F)c(C(N)=O)c2)C1 (single isomer, unassigned) [SC-139, 2-Fluoro-5-[4-methyl-4-[[3-(trifluoromethyl)phenyl]sulfonyl]-tetrahydro-pyran-2-yl]-benzamide]",B (%-Inhibition >75% up to ≦95%)
5,"CC1(S(=O)(=O)c2cccc(C(F)(F)F)c2)CCOC(COc2ccc(S(C)(=O)=O)cc2F)C1 (single isomer, unassigned) [SC-149, 2-[(2-Fluoro-4-methylsulfonyl-phenoxy)-methyl]-4-methyl-4-[[3-(trifluoromethyl)phenyl]sulfonyl]-tetrahydro-pyran]",A (%-Inhibition >95%)

# Same assay, conditions: HEK293, 3 μM test compound, 30 mM KCl assay buffer (inactivated channel state), HEK293 cells; read-out: Activity Category: %-Inhib (CaV2.2) @3 μM @30 mM KCl
row,SMILES,inhibition at 3 µM [%]
1,"CC1(C)CC(C)(S(=O)(=O)c2cccc(C(F)(F)F)c2)CC(c2ccc(Cl)cc2)O1 (racemic) [SC-302, 6-(4-Chlorophenyl)-2,2,4-trimethyl-4-[[3-(trifluoromethyl)phenyl]sulfonyl]-tetrahydro-pyran]",75 to 95
2,"CC1(S(=O)(=O)c2cc(F)cc(C(F)(F)F)c2)CCOC(c2ccc(Cl)cc2)C1 (racemic) [SC-305, 2-(4-Chlorophenyl)-4-[[3-fluoro-5-(trifluoromethyl)-phenyl]sulfonyl]-4-methyl-tetrahydro-pyran]",75 to 95
3,"CC1(S(=O)(=O)c2cccc(OC(F)(F)F)c2)CCOC(c2ccc(Cl)cc2)C1 (racemic) [SC-315, 2-(4-Chlorophenyl)-4-methyl-4-[[3-(trifluoromethyloxy)-phenyl]sulfonyl]-tetrahydro-pyran]",> 95
4,"CC1(S(=O)(=O)c2cccc(OC(F)(F)F)c2)CCOC(c2ccc(S(C)(=O)=O)cc2F)C1 (racemic) [SC-504, 2-(2-Fluoro-4-methylsulfonyl-phenyl)-4-methyl-4-[[3-(trifluoromethyloxy)-phenyl]sulfonyl]-tetrahydro-pyran]",> 95
5,"CC(C)c1cccc(S(=O)(=O)C2(C)CCOC(c3ccc(S(C)(=O)=O)cc3F)C2)c1 (racemic) [SC-505, 2-(2-Fluoro-4-methylsulfonyl-phenyl)-4-[(3-isopropyl-phenyl)sulfonyl]-4-methyl-tetrahydro-pyran]",> 95
6,"CC1(S(=O)(=O)c2cccc(C(F)F)c2)CCOC(c2ccc(S(C)(=O)=O)cc2F)C1 (racemic) [SC-508, 4-[[3-(Difluoro-methyl)-phenyl]sulfonyl]-2-(2-fluoro-4-methylsulfonyl-phenyl)-4-methyl-tetrahydro-pyran]",75 to 95
7,"CC(C)Oc1cccc(S(=O)(=O)C2(C)CCOC(c3ccc(S(C)(=O)=O)cc3F)C2)c1 (racemic) [SC-511, 2-(2-Fluoro-4-methylsulfonyl-phenyl)-4-[(3-isopropoxy-phenyl)sulfonyl]-4-methyl-tetrahydro-pyran]",75 to 95
8,"CC1(S(=O)(=O)c2cccc(C3CC3)c2)CCOC(c2ccc(S(C)(=O)=O)cc2F)C1 (racemic) [SC-514, 4-[(3-Cyclopropyl-phenyl)sulfonyl]-2-(2-fluoro-4-methylsulfonyl-phenyl)-4-methyl-tetrahydro-pyran]",> 95
9,"CC1(S(=O)(=O)c2cc(F)cc(C(F)(F)F)c2)CCOC(c2ccc(S(C)(=O)=O)cc2F)C1 (racemic) [SC-515, 2-(2-Fluoro-4-methylsulfonyl-phenyl)-4-[[3-fluoro-5-(trifluoromethyl)-phenyl]sulfonyl]-4-methyl-tetrahydro-pyran]",> 95
10,"CC1(S(=O)(=O)c2cccc(OC(F)F)c2)CCOC(c2ccc(S(C)(=O)=O)cc2F)C1 (racemic) [SC-520, 4-[[3-(Difluoro-methoxy)-phenyl]sulfonyl]-2-(2-fluoro-4-methylsulfonyl-phenyl)-4-methyl-tetrahydro-pyran]",75 to 95
11,"CC1(S(=O)(=O)c2cccc(C(F)(F)F)c2)CCC(c2ccc(Cl)cc2)OC1 (single isomer, unassigned) [SC-116, 2-(4-Chlorophenyl)-5-methyl-5-[[3-(trifluoromethyl)phenyl]sulfonyl]-tetrahydro-pyran]",40 to 75
12,"CC1(c2ccc(Cl)cc2)CC(S(=O)(=O)c2cccc(C(F)(F)F)c2)CCO1 (single isomer, unassigned) [SC-117, 2-(4-Chlorophenyl)-2-methyl-4-[[3-(trifluoromethyl)phenyl]sulfonyl]-tetrahydro-pyran]",> 95
13,"CC1(S(=O)(=O)c2cccc(C(F)(F)F)c2)CCOC(COc2ccc(Cl)cc2)C1 (single isomer, unassigned) [SC-127, 2-((4-chlorophenoxy)methyl)-4-methyl-4-((3-(trifluoromethyl)phenyl)sulfonyl)tetrahydro-2H-pyran]",> 95
14,"CC1(S(=O)(=O)c2cccc(C(F)(F)F)c2)CCOC(Cc2ccc(Cl)cc2)C1 (single isomer, unassigned) [SC-130, 2-[(4-Chlorophenyl)-methyl]-4-methyl-4-[[3-(trifluoromethyl)phenyl]sulfonyl]-tetrahydro-pyran]",75 to 95
15,"CC1(S(=O)(=O)c2cccc(C(F)(F)F)c2)CCOC(c2ccc(S(C)(=O)=O)c(S(C)(=O)=O)c2)C1 (single isomer, unassigned) [SC-132, 2-[3,4-Bis(methylsulfonyl)-phenyl]-4-methyl-4-[[3-(trifluoromethyl)phenyl]sulfonyl]-tetrahydro-pyran]",75 to 95
16,"CC1(S(=O)(=O)c2cccc(C(F)(F)F)c2)CCOC(c2ccc(-n3cncn3)cc2)C1 (single isomer, unassigned) [SC-134, 1-[4-[4-Methyl-4-[[3-(trifluoromethyl)phenyl]sulfonyl]-tetrahydro-pyran-2-yl]-phenyl]-1H-[1,2,4]triazole]",75 to 95
17,"CC1(S(=O)(=O)c2cccc(C(F)(F)F)c2)CCOC(c2ccc(F)c(C#N)c2)C1 (single isomer, unassigned) [SC-136, 2-Fluoro-5-[4-methyl-4-[[3-(trifluoromethyl)phenyl]sulfonyl]-tetrahydro-pyran-2-yl]-benzonitrile]",> 95
18,"CC1(S(=O)(=O)c2cc(F)cc(C(F)(F)F)c2)CCOC(c2ccc(S(C)(=O)=O)cc2)C1 (single isomer, unassigned) [SC-142, 4-[[3-Fluoro-5-(trifluoromethyl)-phenyl]sulfonyl]-4-methyl-2-(4-methylsulfonyl-phenyl)-tetrahydro-pyran]",75 to 95
19,"CC1(S(=O)(=O)c2cccc(C(F)(F)F)c2)CCOC(COc2ccc(S(C)(=O)=O)cc2F)C1 (single isomer, unassigned) [SC-148, 2-[(2-Fluoro-4-methylsulfonyl-phenoxy)-methyl]-4-methyl-4-[[3-(trifluoromethyl)phenyl]sulfonyl]-tetrahydro-pyran]",75 to 95
20,"CC1(S(=O)(=O)c2cccc(C(F)(F)F)c2)CCOC(COc2ccc(S(C)(=O)=O)c(F)c2)C1 (single isomer, unassigned) [SC-150, 2-[(3-Fluoro-4-methylsulfonyl-phenoxy)-methyl]-4-methyl-4-[[3-(trifluoromethyl)phenyl]sulfonyl]-tetrahydro-pyran]",75 to 95
